Values of other authors as cited in US20030083469A1, “Allosteric control of nuclear hormone receptors” (The Salk Institute for Biological Studies, priority 1995, published 2003).

How the values were obtained:
RAR = details: Allegretto et al., 1993, Allenby et al.; cited from earlier work
RXR = details: Allegretto et al., 1993, Allenby et al.; cited from earlier work

In the case of `CC1=C(/C=C/C(C)=C\C=C\C(C)=C\C(=O)O)C(C)(C)CCC1` [9-cis RA, 9-cis retinoic acid], the binding affinity (RAR) is given as “high affinity” and the binding affinity (RXR) is given as “high affinity”.
